# Experimental data as given in US20190055256A1, “ANTI-VIRAL DRUG” (DORING INTERNATIONAL GMBH, priority 2016, published 2019).
# Test: Physical and chemical characteristics: solubility in solvents
# Type: physicochemical
substance,measurement,setting,value
"sodium salt of 7-methylthio-3-nitro [1, 2, 4] triazolo [5,1-c] [1, 2, 4] triazin-4 (1H)-one",solubility in acetone,solvent: acetone,soluble
same,solubility in chloroform,solvent: chloroform,insoluble
same,solubility in dimethylformamide,solvent: dimethylformamide,soluble
same,solubility in dimethylsulfoxide,solvent: dimethylsulfoxide,soluble
same,solubility in water,solvent: water,soluble
